Source: US7772260B2, “Imidazo[2,1-b]-1,3,4-thiadiazole sulfonamides” (Aegera Therapeutics Inc., priority 2001, dated 2010)
Counter-ions that a name gives are not always drawn.

The molecules below were run on SCG neurons (assay: cells). Settings: Rattus norvegicus, Neuron, 48 h, read-out: IC(50), protection of SCG neurons from Taxol killing.
Type: cell-based, Sprague Dawley rats
Description: Taxol™ is regularly used in breast cancer chemotherapy. In cancer cells Taxol™ binds to the cyto-skeletal protein tubulin, thereby inhibiting normal microtubular assembly and inducing cellular apoptosis. Despite its potency as an anti-tumour agent, Taxol™ is also toxic to neurons, inducing dose limiting peripheral neuropathies. The addition of Taxol™ (100 ng/mL) to cultured SCG neurons induces the degradation or loss of upwards of 80% of the neurons.
FIG. 1 illustrates the protection provided by compound 1 (referred to here as AEG3482) against Taxol™ induced killing. PI Sprague Dawley rat SCG neurons were cultured and incubated with NGF (50 ng/mL) for 5 days.

Compound | IC50 [µM]
CC1(C)CCC(C)(C)c2cc(-c3cn4nc(S(N)(=O)=O)sc4n3)ccc21 [Compound 56, 6-(5,5,8,8-Tetramethyl-5,6,7,8-tetrahydronaphthalen-2-yl)imidazo[2,1-b]-1,3,4-thiadiazole-2-sulfonamide] | 3
Cc1cc2c(cc1-c1cn3nc(S(N)(=O)=O)sc3n1)C(C)(C)CCC2(C)C [Compound 57] | 6
NS(=O)(=O)c1nn2cc(-c3cc4ccc5cccc6ccc(c3)c4c56)nc2s1 [Compound 64, 6-pyrenylimidazo[2,1-b]-1,3,4-thiadiazole-2-sulfonamide] | 10

Same assay, conditions: Rattus norvegicus, Neuron; Taxol™ (50 ng/mL), viability 48 hours later, MTS; read-out: IC(50), protection of SCG neurons from Taxol killing

Compound | IC50 [µM]
COCCOCCOc1ccc(-c2cn3nc(S(N)(=O)=O)sc3n2)cc1 [Compound 30] | 10
NS(=O)(=O)c1nn2cc(-c3ccc(OCCOCc4ccccc4)cc3)nc2s1 [Compound 31, 6-(4′-(2-Benzyloxyethoxy)phenyl)-imidazo[2,1-b]-1,3,4-thidiazole-2 sulfonamide] | 10
NS(=O)(=O)c1nn2cc(-c3ccc(OCCCOCc4ccccc4)cc3)nc2s1 [Compound 32] | 10
Cc1ccc(C23CC4CC(CC(C4)C2)C3)cc1-c1cn2nc(S(N)(=O)=O)sc2n1 [Compound 51] | 5
NS(=O)(=O)c1nn2cc(-c3ccc(C(F)(F)F)cc3)nc2s1 [Compound 52, 6-(4-(Trifluoromethyl)phenyl)imidazo[2,1-b]-1,3,4-thiadiazole-2-sulfonamide] | 3
NS(=O)(=O)c1nn2cc(-c3cc(C(F)(F)F)cc(C(F)(F)F)c3)nc2s1 [Compound 54, 6-(3,5-di(trifluoromethyl)phenyl)imidazo[2,1-b]-1,3,4-thiadiazole-2-sulfonamide] | 10
CC(C)(C)c1cc(-c2cn3nc(S(N)(=O)=O)sc3n2)cc(C(C)(C)C)c1O [Compound 55, 6-(3,4-Di-tert-butyl-4-hydroxyphenyl)imidazo[2,1-b]-1,3,4-thiadiazole-2-sulfonamide] | 15
CC(=O)N[C@@H](C)c1ccc(-c2cn3nc(S(N)(=O)=O)sc3n2)cc1 [Compound 58, 6-(4-(S-1-acetamidoethyl)phenyl)imidazo[2,1-b]-1,3,4-thiadiazole-2-sulfonamide] | 30
NS(=O)(=O)c1nn2cc(C(F)(F)F)nc2s1 [Compound 59] | 10
NS(=O)(=O)c1nn2cc(C34CC5CC(CC(C5)C3)C4)nc2s1 [Compound 60, 6-(1-adamantyl)imidazo[2,1-b]-1,3,4-thiadiazole-2-sulfonamide] | 25
NS(=O)(=O)c1nn2cc(-c3cccc4ccccc34)nc2s1 [Compound 61, 6-(1-Naphthyl)imidazo[2,1-b]-1,3,4-thiadiazole-2-sulfonamide] | 10
NS(=O)(=O)c1nn2cc(-c3ccc4ccccc4c3)nc2s1 [Compound 62, 6-(2-Naphthyl)imidazo[2,1-b]-1,3,4-thiadiazole-2-sulfonamide] | 15
COc1ccc2ccc(-c3cn4nc(S(N)(=O)=O)sc4n3)cc2c1Br [Compound 63, 6-(8-Bromo-7-methoxylnaphth-2-yl)imidazo[2,1-b]-1,3,4-thiadiazole-2-sulfonamide] | 7
Cc1c(-c2ccccc2)nc2sc(S(N)(=O)=O)nn12 [Compound 65, 5-Methyl-6-phenyl-imidazo[2,1-b]-1,3,4-thiadiazole-2-sulfonamide] | 15
NS(=O)(=O)c1nn2c(-c3ccccc3)c(-c3ccccc3)nc2s1 [Compound 66, 5,6-Diphenyl-imidazo[2,1-b]-1,3,4-thiadiazole-2-sulfonamide] | 20
NS(=O)(=O)c1nn2cc(-c3ccc(N4CCCCC4)cc3)nc2s1 [Compound 67, 6-(4-Piperidinophenyl)imidazo[2,1-b]-1,3,4-thiadiazole-2-sulfonamide] | 10
NS(=O)(=O)c1nn2cc(-c3ccc(N4CCOCC4)cc3)nc2s1 [Compound 68, 6-(4-Morpholinophenyl)imidazo[2,1-b]-1,3,4-thiadiazole-2-sulfonamide] | 7
Nc1ccc(-c2cn3nc(S(N)(=O)=O)sc3n2)cc1 [Compound 70, 6-(4-Aminophenyl)imidazo[2,1-b]-1,3,4-thiadiazole-2-sulfonamide] | 22
NS(=O)(=O)c1nn2cc(-c3ccc(B(O)O)cc3)nc2s1 [Compound 71] | > 30
NS(=O)(=O)c1nn2cc(-c3ccc(-c4c(F)c(F)c(F)c(F)c4F)cc3)nc2s1 [Compound 73, 6-(4-(2,3,4,5,6-tetrafluorophenyl)phenyl)imidazo[2,1-b]-1,3,4-thiadiazole-2-sulfonamide] | 2
COC(=O)COc1ccc(-c2cn3nc(S(N)(=O)=O)sc3n2)cc1 [Compound 101] | > 30
NS(=O)(=O)c1nn2cc(-c3ccc(OCC(=O)O)cc3)nc2s1 [Compound 102] | > 30
COC(=O)COc1ccc(-c2nc3sc(S(N)(=O)=O)nn3c2C)cc1 [Compound 103] | > 30

Compound | IC50 [µM]
Cc1ccc(-c2nc3sc(S(N)(=O)=O)nn3c2C)cc1Cl [Compound 104, 6-(3-chloro-4-methylphenyl)-5-methylimidazo[2,1-b]-1,3,4-thiadiazole-2-sulfonamide] | 7
NS(=O)(=O)c1nn2cc(-c3ccncc3)nc2s1 [Compound 107, 6-(4-Pyridyl)imidazo[2,1-b]-1,3,4-thiadiazole-2-sulfonamide] | 20
NS(=O)(=O)c1nn2cc(-c3cnccn3)nc2s1 [Compound 108] | 5
NS(=O)(=O)c1nn2cc(-c3ccc4c(c3)NC(=O)CO4)nc2s1 [Compound 110] | > 30
NS(=O)(=O)c1nn2cc(-c3cccs3)nc2s1 [Compound 112, 6-(2-Thiophenyl)-imidazo[2,1-b]-1,3,4-thiadiazole-2-sulfonamide] | 5
NS(=O)(=O)c1nn2cc(-c3ccc(-c4ccccc4)s3)nc2s1 [Compound 113, 6-(5-Phenylthiophen-2-yl)-imidazo[2,1-b]-1,3,4-thiadiazole-2-sulfonamide] | 7
NS(=O)(=O)c1nn2cc(-c3ccc([N+](=O)[O-])s3)nc2s1 [Compound 114, 6-(5-Nitro-2-thiophenyl)-imidazo[2,1-b]-1,3,4-thiadiazole-2-sulfonamide hydrobromide] | 7
Cc1c(-c2cn3nc(S(N)(=O)=O)sc3n2)sc2ccccc12 [Compound 115, 6-(3-Methylbenzo[b]thiophen-2-yl)imidazo[2,1-b]-1,3,4-thiadiazole-2-sulfonamide] | 7
NS(=O)(=O)c1nn2cc(-c3csc4ccccc34)nc2s1 [Compound 116, 6-(Benzo[b]thiophen-3-yl)imidazo[2,1-b]-1,3,4-thiadiazole-2-sulfonamide] | 7
NS(=O)(=O)c1nn2cc(-c3cc(-c4ccccc4)no3)nc2s1 [Compound 117, 6-(3-Phenylisoxazol-5-yl)imidazo[2,1-b]-1,3,4-thiadiazole-2-sulfonamide] | 3
Cc1onc(-c2ccccc2)c1-c1cn2nc(S(N)(=O)=O)sc2n1 [Compound 118, 6-(5-Methyl-3-phenylisoxazol-4-yl)imidazo[2,1-b]-1,3,4-thiadiazole-2-sulfonamide] | 17
Cc1c(-c2cn3nc(S(N)(=O)=O)sc3n2)cnn1-c1ccccc1 [Compound 120, 6-(5-methyl-1-phenyl-1H-pyrazol-4-yl)imidazo[2,1-b]-1,3,4-thiadiazole-2-sulfonamide] | 7
NS(=O)(=O)c1nn2cc(-c3nccs3)nc2s1 [Compound 121, 6-(Thiaxol-2-yl)imidazo[2,1-b]-1,3,4-thiadiazole-2-sulfonamide] | 2
Cc1nc(C)c(-c2cn3nc(S(N)(=O)=O)sc3n2)s1 [Compound 122, 6-(2,4-Thiaxol-5-yl)imidazo[2,1-b]-1,3,4-thiadiazole-2-sulfonamide] | 8
NS(=O)(=O)c1nn2c(Cl)c(-c3ccccc3)nc2s1 [Compound 123, 5-Chloro-6-phenyl-imidazo[2,1-b]-1,3,4-thiadiazole-sulfonamide] | > 30
NS(=O)(=O)c1nn2c(Br)c(-c3ccccc3)nc2s1 [Compound 124, 5-Bromo-6-phenyl-imidazo[2,1-b]-1,3,4-thiadiazole-2-sulfonamide hydrobromide] | 3
NS(=O)(=O)c1nn2c(Br)c(-c3ccccn3)nc2s1 [Compound 125, 5-Bromo-6-(2-pyridyl)imidazo[2,1-b]-1,3,4-thiadiazole-2-sulfonamide hydrobromide] | 3
NS(=O)(=O)c1nn2c(Br)c(-c3ccc(Br)cc3)nc2s1 [Compound 128, 5-Bromo-6-(4-bromophenyl)imidazo[2,1-b]-1,3,4-thiadiazole-2-sulfonamide hydrobromide] | 2
COc1cccc(-c2nc3sc(S(N)(=O)=O)nn3c2Br)c1Br [Compound 129, 5-Bromo-6-(2-bromo3-methoxyphenyl)imidazo[2,1-b]-1,3,4-thiadiazole-2-sulfonamide hydrobromide] | 7
NS(=O)(=O)c1nn2c(Br)c(-c3ccc4ccccc4c3)nc2s1 [Compound 130, 5-Bromo-6-(2-naphthyl)imidazo[2,1-b]-1,3,4-thiadiazole-2-sulfonamide hydrobromide] | 2
NS(=O)(=O)c1nn2c(Cl)c(-c3ccc(-c4ccccc4)cc3)nc2s1 [Compound 131, 5-Chloro-6-(biphenyl)imidazo[2,1-b]-1,3,4-thiadiazole-2-sulfonamide hydrobromide] | 3
NS(=O)(=O)c1nn2c(Br)c(-c3ccc(-c4ccccc4)cc3)nc2s1 [Compound 132, 5-Bromo-6-(biphenyl)imidazo[2,1-b]-1,3,4-thiadiazole-2-sulfonamide hydrobromide] | 1
